ChEMBL document CHEMBL1128650, “Non-peptide glycoprotein IIb/IIIa inhibitors. 6. Design and synthesis of rigid, centrally constrained non-peptide fibrinogen receptor antagonists” (Bioorg Med Chem Lett, 1995)

system: Endothelial cell; experiment: Inhibition of human umbilical vein endothelial cell adhesion to fibrinogen, vitronectin and fibronectin coated surfaces;NI means no inhibition at 300 uM; type: functional, cell-based

Compound | inhibition
O=C(O)CCNC(=O)c1cc2n(c1)CCN(CCC1CCNCC1)C2=O | No inhibition

target: Integrin alpha-IIb/beta-3 (Homo sapiens, UniProt P05106+P08514); experiment: Inhibition of fibrinogen binding to glycoprotein alpha IIb beta-3 integrin of activated platelets
Sequence (P05106 27-788 limits assumed): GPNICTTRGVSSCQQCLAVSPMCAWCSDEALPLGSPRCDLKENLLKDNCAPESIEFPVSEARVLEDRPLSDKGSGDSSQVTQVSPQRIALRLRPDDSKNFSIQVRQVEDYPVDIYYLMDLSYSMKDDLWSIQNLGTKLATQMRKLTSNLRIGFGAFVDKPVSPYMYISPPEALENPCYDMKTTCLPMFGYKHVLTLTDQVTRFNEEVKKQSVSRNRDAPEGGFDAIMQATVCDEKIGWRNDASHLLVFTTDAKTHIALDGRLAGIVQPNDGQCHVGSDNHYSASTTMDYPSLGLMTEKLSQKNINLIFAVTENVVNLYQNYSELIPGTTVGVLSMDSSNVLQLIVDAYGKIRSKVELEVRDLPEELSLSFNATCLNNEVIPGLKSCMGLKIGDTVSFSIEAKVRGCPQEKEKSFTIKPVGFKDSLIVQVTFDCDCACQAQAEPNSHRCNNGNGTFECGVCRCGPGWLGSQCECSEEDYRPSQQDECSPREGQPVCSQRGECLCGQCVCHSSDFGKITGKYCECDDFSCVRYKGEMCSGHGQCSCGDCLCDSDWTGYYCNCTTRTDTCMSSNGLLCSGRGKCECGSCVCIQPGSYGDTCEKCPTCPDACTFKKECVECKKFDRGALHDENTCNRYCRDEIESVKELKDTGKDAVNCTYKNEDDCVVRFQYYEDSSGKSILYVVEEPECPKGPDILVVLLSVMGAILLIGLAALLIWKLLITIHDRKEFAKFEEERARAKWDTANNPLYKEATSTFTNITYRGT
Sequence (P08514 32-887 limits assumed): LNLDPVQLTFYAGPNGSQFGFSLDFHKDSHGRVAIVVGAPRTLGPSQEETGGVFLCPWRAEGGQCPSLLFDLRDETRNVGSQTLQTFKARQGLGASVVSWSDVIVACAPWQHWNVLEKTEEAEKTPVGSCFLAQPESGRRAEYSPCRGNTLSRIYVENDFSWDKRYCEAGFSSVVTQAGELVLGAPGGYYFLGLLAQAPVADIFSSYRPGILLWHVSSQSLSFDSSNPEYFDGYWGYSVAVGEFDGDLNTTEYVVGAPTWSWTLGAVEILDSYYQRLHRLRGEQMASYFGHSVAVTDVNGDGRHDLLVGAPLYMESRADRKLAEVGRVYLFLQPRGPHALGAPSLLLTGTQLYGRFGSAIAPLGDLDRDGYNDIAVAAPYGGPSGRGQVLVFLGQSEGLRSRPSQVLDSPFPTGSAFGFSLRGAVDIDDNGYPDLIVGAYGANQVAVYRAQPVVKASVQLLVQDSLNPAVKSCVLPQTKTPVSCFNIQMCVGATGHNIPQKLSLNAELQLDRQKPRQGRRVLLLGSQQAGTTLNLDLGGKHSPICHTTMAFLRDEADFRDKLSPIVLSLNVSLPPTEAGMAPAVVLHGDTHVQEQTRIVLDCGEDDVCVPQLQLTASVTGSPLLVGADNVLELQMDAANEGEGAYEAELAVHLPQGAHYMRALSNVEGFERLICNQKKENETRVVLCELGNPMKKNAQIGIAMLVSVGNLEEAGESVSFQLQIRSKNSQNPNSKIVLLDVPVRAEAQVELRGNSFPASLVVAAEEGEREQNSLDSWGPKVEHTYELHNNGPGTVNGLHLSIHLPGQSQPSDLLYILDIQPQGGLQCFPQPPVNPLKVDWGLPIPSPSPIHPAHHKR
Sequence (P08514 891-1039 limits assumed): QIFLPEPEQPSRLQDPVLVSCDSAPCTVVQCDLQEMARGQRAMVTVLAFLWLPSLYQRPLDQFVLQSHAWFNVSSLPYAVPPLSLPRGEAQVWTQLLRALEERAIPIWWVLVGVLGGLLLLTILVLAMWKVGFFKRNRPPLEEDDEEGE

Compound | IC50
O=C(O)CCNC(=O)c1cc2n(c1)CCCN(CCC1CCNCC1)C2=O | 0.17 µM
O=C(O)CCNC(=O)c1cc2n(c1)CCN(CCC1CCNCC1)C2=O | 0.079 µM
Cc1c(C(=O)NCCC(=O)O)cn2c1C(=O)N(CCC1CCNCC1)CC2 | 0.17 µM
Cc1c(C(=O)NCCC(=O)O)cn2c1C(=O)N(CCC1CCNCC1)CCC2 | 0.51 µM
O=C(O)CCNC(=O)c1cn2c(c1-c1ccccc1)C(=O)N(CCC1CCNCC1)CCC2 | > 300 µM

Second part, the compound after the results:

IC50 | Compound
45 µM | O=C(O)CCNC(=O)c1cc2n(n1)CCN(CC1CCNCC1)C2=O
31 µM | O=C(O)CCN1CCn2nc(C(=O)NCCC3CCNCC3)cc2C1=O
1.3 µM | O=C(O)CCNC(=O)c1cc2n(n1)CCN(CCCC1CCNCC1)C2=O
0.25 µM | O=C(O)CCNC(=O)c1cc2n(n1)CCN(CCC1CCNCC1)C2=O
14 µM | O=C(O)CNC(=O)c1cc2n(n1)CCN(CCCC1CCNCC1)C2=O
15 µM | O=C(O)CCCNC(=O)c1cc2n(n1)CCN(CC1CCNCC1)C2=O
